Patent publication US20220305121A1, “N-ARYL SULFONAMIDE DERIVATIVES AS VACCINE ADJUVANT” (The Regents of the University of California, priority 2019, published 2022)
Entries after “also recorded” stand apart in the source; their conditions may differ.

Tests used:
Type in all cases: cell-based
ISRE = assay: Measurement of ISRE activity in ISRE-bla THP-1 cells (FRET, IFN-α as primary stimulus); conditions: for ISRE % Activation / activity at 5 µM: compound 5 μM + IFN-α 100 U/mL, 16 hours, two point normalized: compound 1 + IFN-α = 200%, IFN-α = 100%, mean; for activity at 5 µM: read-out: ISRE % Activation; for ISRE activity (in words): with IFN-α
Description: (§1) ISRE-bla THP-1 cells were plated in 96-well plates at 5×10^4 cells/well in 50 μl RPMI supplemented with 10% dialyzed FBS (Atlanta Biologicals, Inc., GA), 0.1 mM nonessential amino acids, 1 mM sodium pyruvate, 100 U/mL penicillin and 100 μg/ml streptomycin. Type I IFN-α (R&D Systems, #11200-2) solution was prepared in assay medium at a concentration of 200 U/mL Tested compounds were dissolved in DMSO at 1 mM and were further diluted in the IFN-α solution to a final concentration of 10 μM. 50 μL of this solution was then transferred to the plated cells to obtain a final concentration of IFN-α at 100 U/mL and compound at 5 μM ([…]), The cells were incubated for 16 hours, after which 20 μL of 6×LiveBLAzer™ FRET B/G Substrate (CCF4-AM) mixture (prepared according to the manufacturer's instructions) was added to each well, Plates were incubated at room temperature in the dark for 3 hours. Fluorescence was measured on a Tecan Infinite M200 plate reader at an excitation wavelength of 405 nm, and emission wavelengths of 465 nm and 535 nm. Background values (cell free wells at the same fluorescence wavelength) were subtracted from the raw fluorescence intensity values and the emission ratios were calculated as the ratio of background subtracted fluorescence intensities at 465 nm to background subtracted fluorescence intensities at 535 nm. The ISRE activity values for these compounds were 2-point normalized to yield activity of compound 1+IFN-α as 200% and activity for IFN-α as 100%.
Measurement of ISRE Activity in ISRE-bla THP-1 Cells. ISREbla THP-1 cells were plated in 96-well plates at 5×10^4 cells/well in 50 μL of RPMI supplemented with 10% dialyzed FBS (Atlanta Biologicals, Inc., GA), 0.1 mM nonessential amino acids, 1 mM sodium pyruvate, 100 U/mL penicillin, and 100 μg/mL streptomycin. Type I IFN-α (R&D Systems, no. 11200-2) solution was prepared in assay medium at a concentration of 200 U/mL. Tested compounds were dissolved in DMSO at 1 mM and were further diluted in the IFN-α solution to a final concentration of 10 μM. 50 μL of this solution was then transferred to the plated cells to obtain a final concentration of IFN-α at 100 U/mL and compound at 5 μM ([…]). The cells were incubated for 16 hours, after which 20 μL of 6×LiveBLAzer FRET B/G substrate (CCF4-AM) mixture (prepared according to the manufacturer's instructions) was added to each well. Plates were incubated at room temperature in the dark for 3 hours. Fluorescence was measured on a Tecan Infinite M200 plate reader at an excitation wavelength of 405 nm and emission wavelengths of 465 and 535 nm. Background values (cell free wells at the same fluorescence wavelength) were subtracted from the raw fluorescence intensity values and the emission ratios were calculated as the ratio of background subtracted fluorescence intensities at 465 nm to background subtracted fluorescence intensities at 535 nm. The ISRE activity values for these compounds were two-point normalized to yield activity of compound 1+IFN-α as 200% and activity for IFN-α as 100%.

NF-κB and ISRE = NF-κB and ISRE reporter assays (primary screens), statements in words for both assays; conditions: with LPS or IFN-α as primary stimulus; compared to compound 1
Description: (§2) THP1-Blue™ NF-κB cells were plated in 96-well plates at 10^5 cells/well in 100 μl RPMI supplemented with 10% fetal bovine serum (FBS, Omega Scientific, Inc., Tarzana, Calif.), 100 U/mL penicillin, 100 μg/ml streptomycin (Thermo Fisher Scientific) and Normocin (Invivogen). LPS was prepared in assay medium at a concentration of 20 μg/mL. Tested compounds were dissolved in DMSO at 1 mM as a stock solution and were further diluted in the LPS solution to a final concentration of 10 μM. 100 μL of this solution was then transferred to the plated cells to obtain a final concentration of LPS at 10 μg/mL and compound at 5 μM ([…]). The culture supernatants were harvested after a 20 hour incubation period, SEAP activity in the culture supernatants was determined by a colorimetric assay using QuantiBlue (Invivogen). Plate absorbance was read at 630 nm using a Tecan Infinite M200 plate reader (Männedorf, Switzerland). The SEAP concentration was directly proportional to NF-κB activity, which was 2-point normalized to yield activity of compound 1+LPS as 200% and activity for LPS as 100%.
as §1
(§3) Measurement of NF-κB Activation Using THP1-Blue NF-κB Cells. THP1-Blue NF-κB cells were plated in 96-well plates at 10^5 cells/well in 100 μL of RPMI supplemented with 10% fetal bovine serum (FBS, Omega Scientific, Inc., Tarzana, Calif.), 100 U/mL penicillin, 100 μg/mL streptomycin (Thermo Fisher Scientific), and Normocin (Invivogen). LPS was prepared in assay medium at a concentration of 20 μg/mL. Tested compounds were dissolved in DMSO at 1 mM as a stock solution and were further diluted in the LPS solution to a final concentration of 10 μM. 100 μL of this solution was then transferred to the plated cells to obtain a final concentration of LPS at 10 μg/mL and compound at 5 μM ([…]). The culture supernatants were harvested after a 20 hours incubation period. SEAP activity in the culture supernatants was determined by a colorimetric assay using QuantiBlue (Invivogen). Plate absorbance was read at 630 nm using a Tecan Infinite M200 plate reader (Mannedorf, Switzerland). The SEAP concentration was directly proportional to NF-κB activity, which was two-point normalized to yield activity of compound 1+LPS as 200% and activity for LPS as 100%.
Measurement of ISRE Activity in ISRE-bla THP-1 Cells. […]

NF-κB = assay: Measurement of NF-κB activation using THP1-Blue NF-κB cells (SEAP reporter, LPS as primary stimulus); conditions: for NF-κB % Activation / activity at 5 µM: compound 5 μM + LPS, 20 hour incubation, two point normalized: compound 1 + LPS = 200%, LPS = 100%, mean
Description: as §2, §3

THP-1 cells = assay: Cell viability assay (MTT); conditions: for MTT % Viability: compound 5 μM, 18 hours incubation, normalized to DMSO as 100%, mean
Description: THP-1 cells were plated in 96-well plates (10^5 cells/well) in 100 μL RPMI supplemented with 10% FBS, 100 U/mL penicillin and 100 μg/ml streptomycin. Compounds were dissolved in DMSO at 1 mM stock solution and were further diluted to 10 μM in the assay medium. 100 μL of this solution was added to the cells to obtain a final compound concentration of 5 μM ([…]). After 18 hours incubation, a solution of MTT in assay media (0.5 mg/mL) was added to each well and further incubated for 4 to 6 hours, followed by addition of cell lysis buffer (15% w/v SDS and 0.12% v/v 12N HCl aqueous solution), incubated overnight, and then absorbance measured at 570 nm using 650 nm as reference using Tecan Infinite M200 plate reader.
Cell Viability Assay. THP-1 cells were plated in 96-well plates (10^5 cells/well) in 100 μL RPMI supplemented with 10% FBS, 100 U/mL penicillin, and 100 μg/mL streptomycin. Compounds were dissolved in DMSO at 1 mM stock solution and were further diluted to 10 μM in the assay medium. 100 μL of this solution was added to the cells to obtain a final compound concentration of 5 μM ([…]). After 18 h incubation, a solution of MTT in assay media (0.5 mg/mL) was added to each well and further incubated for 4-6 hours, followed by addition of cell lysis buffer (15% w/v SDS and 0.12% v/v 12 N HCl aqueous solution), incubation overnight, and then absorbance was measured at 570 nm using 650 nm as reference using Tecan Infinite M200 plate reader.

Row | Compound | ISRE % Activation (ISRE) [%] | activity in NF-κB and ISRE assays (in words) (NF-κB and ISRE) | NF-κB % Activation (NF-κB) [%] | MTT % Viability (THP-1 cells) [%] | activity at 5 µM (ISRE; Homo sapiens, THP-1) [%] | ISRE activity (in words) (ISRE) | activity at 5 µM (NF-κB) [%] | NF-κB activity (in words) (NF-κB; with LPS) | EC50 (ISRE; Homo sapiens, THP-1, dose response in the presence of IFN-α) [nM] | EC50 (NF-κB; dose response in the presence of LPS) [nM] | toxicity in MTT assays (in words) (THP-1 cells; 5 μM)
1 | CCOc1ccc(S(=O)(=O)N(CCCNC(=O)CCCC[C@H]2SC[C@H]3NC(=O)N[C@H]32)c2cc(OC)c(N=[N+]=[N-])cc2OC)cc1 [Compound 64, N-(3-((N-(4-azido-2,5-dimethoxyphenyl)-4-ethoxyphenyl)sulfonamido)propyl)-5-((3aR,4R,6aS)-2-oxohexahydro-1H-thieno[3,4-d]imidazol-4-yl) pentanamide] | 140 | relatively weak activity | 162 | 73.8 |  |  |  |  |  |  | 
2 | CCOc1ccc(S(=O)(=O)N(c2cc(OC)c(Cl)cc2OC)C(C)C)cc1 [Compound 40, N-(4-chloro-2,5-dimethoxyphenyl)-4-ethoxy-N-isopropylbenzenesulfonamide] |  | inactive |  | 103.2 | 169 | retaining ISRE activity | 76 | eliminated the NF-κB activity; also recorded: loss of NF-κB activity |  |  | 
3 | COc1ccc(S(=O)(=O)Nc2cc(OC)c(Cl)cc2OC)cc1 [Compound 12, N-(4-chloro-2,5-dimethoxyphenyl)-4-methoxybenzenesulfonamide] |  | tolerated; also recorded: retained activity |  | 69.6 | 219 |  | 226 |  | 1400 | 1850 | 
4 | CCOc1ccc(S(=O)(=O)Nc2ccc(Cl)cc2OC)cc1 [Compound 5, N-(4-chloro-2-methoxyphenyl)-4-ethoxybenzenesulfonamide] |  | complete loss of activity; also recorded: significant loss of activity |  | 78.3 | 109 |  | 141 |  |  |  | 
5 | CCOC(=O)c1ccc(S(=O)(=O)Nc2cc(OC)c(Cl)cc2OC)cc1 [Compound 29, Ethyl 4-(N-(4-chloro-2,5-dimethoxyphenyl)sulfamoyl)benzoate] |  | retained partial activity |  | 70.8 | 169 |  | 189 |  |  |  | 
6 | COc1cc(NS(=O)(=O)c2ccc(O)cc2)c(OC)cc1Cl [Compound 11, N-(4-chloro-2,5-dimethoxyphenyl)-4-hydroxybenzenesulfonamide] |  | not tolerated |  | 85.2 | 104 |  | 98 |  |  |  | 
7 | CCOc1ccc(S(=O)(=O)N(CCc2ccccc2)c2cc(OC)c(Cl)cc2OC)cc1 [Compound 47, N-(4-chloro-2,5-dimethoxyphenyl)-4-ethoxy-N-phenethylbenzenesulfonamide] |  | potent analogs |  | 44 | 141 |  | 131 |  |  |  | somewhat higher toxicity
8 | CCOc1ccc(S(=O)(=O)N(CCCNC(=O)CCCCCNC(=O)c2ccc3c(c2)C(=O)OC32c3ccc(O)cc3Oc3cc(O)ccc32)c2cc(OC)c(Cl)cc2OC)cc1 [Compound 56, N-(6-((3-((N-(4-chloro-2,5-dimethoxyphenyl)-4-ethoxyphenyl)sulfonamido)propyl)amino)-6-oxohexyl)-3′,6′-dihydroxy-3-oxo-3H-spiro[isobenzofuran-1,9′-xanthene]-5-carboxamide] | 96 | completely inactive | 100 | 98.1 |  |  |  |  |  |  | 
9 | CCOc1ccc(S(=O)(=O)Nc2cc(OC)c(Cl)c(OC)c2)cc1 [Compound 8, N-(4-chloro-3,5-dimethoxyphenyl)-4-ethoxybenzenesulfonamide] |  | complete loss of activity |  | 71.4 | 218 | slightly skewed ISRE activity | 179 |  |  |  | 
